Results taken from US20090137667A1, “Pesticide Delivery System” (priority 2006, published 2009).
Read-outs that look alike come from different tables or passages of the source.

How the values were obtained:
[1] = Particle size of aqueous dispersions by dynamic light scattering; type: physicochemical; settings: Table 14, microblend with Pluronic P123:Soprophor BSU 1:1, insecticide 4.5 mg/ml, after 2 hours, Nanotrac 250
Procedure: The suspensions were shaken for 40 h at room temperature followed by centrifugation for 10 min at 13,000 rpm. The concentration of Bifenthrin in the supernatants was determined by UV-spectroscopy. For this purpose, standard solutions containing from 0 to 0.58 mg/ml of Bifenthrin in ethanol were prepared using a stock solution of Bifenthrin in acetonitrile with concentration of 8.7 mg/ml. These solutions were used to obtain a calibration curve by measuring an absorbance at 260 nm using Perkin-Elmer Lambda 25 spectrophotometer. […]
Compositions of insecticides were prepared using melts of mixtures of nonionic block copolymer and ethoxylated surfactants. Specifically, tristyrylphenol etoxylate (Soprophor BSU, Rhodia) was used in combination with Pluronic P123 (PEO20-PPO69-PEO20). 250 mg of Pluronic P123 were mixed with 250 mg of Soprophor BSU, and 50 mg of fine powder of the insecticide, and were melted together for 1 hour. The composition of the copolymer/surfactant mixture was P123:Soprophor=1:1 by weight. The feeding copolymer/surfactant:insecticide ratio was 10:1. The melted compositions were cooled down to room temperature. […] 50 mg of the composition was rehydrated in 1 ml of water upon shaking for 1 hour. The total concentration of copolymer/surfactant components in the mixture was ca. 4.6%. The targeted content of insecticide in the microblend dispersion was 4.5 mg/ml.

[2] = Stability and appearance of aqueous dispersions on storage; type: physicochemical; settings: Table 14, microblend with Pluronic P123:Soprophor BSU 1:1, storage at room temperature
[3] = Soil mobility by soil thin layer chromatography (s-TLC); type: physicochemical; settings: Example 50, 14C-bifenthrin, 10% aqueous dispersions, water eluant
Procedure: The evaluation of the soil mobility of the bifenthrin microblends according to the invention was performed using soil thin layer chromatography (s-TLC). Air-dried greenhouse topsoil, sieved to pass through with a 250 μm sieve was used to prepare s-TLC plates. Thirty mL of distilled water was added to 60 g of the sieved soil and the mixture was thoroughly grounded until a smooth, moderately fluid slurry was obtained. The soil slurry was quickly spread evenly across a clean grooved glass plate. Plates contained 9×1 cm channels cut to a depth of 2 mm, with the channels spaced 1 cm apart. Plates were allowed to dry at room temperature over 24 hours. A horizontal line was scribed 12.5 cm above the plate base through the soil layer before the soil dried completely. Bifenthrin microblends used in these experiments were prepared using a bifenthrin sample spiked with ^14C-radiolabeled bifenthrin to achieve reasonable sensitivity. Aqueous dispersions of microblends with concentrations of 10% were used in these experiments. Aliquots of each radiolabeled microblend were spotted 1.5 cm above the plate base. ^14C-labeled sulfentrazone and suspension of ^14C-labeled bifenthrin were used as controls. […]
The s-TLC were then scanned for 2 hours using a Packard InstantImager™ TLC plate scanner. Rf values were determined from the images obtained using the following equation (1): […]

[4] = cited from earlier work; for Log P: as referred in The Pesticide Manual, 11th edition (Table 18)
[5] = log P measured by the procedure of Donovan and Pescatore, internally standardized with toluene and triphenylene; type: physicochemical
Procedure: Compositions of herbicides were prepared using melts of mixtures of nonionic block copolymer and ethoxylated surfactants. Specifically, tristyrylphenol etoxylate (Soprophor BSU, Rhodia) was used in combination with Pluronic P123 (PEO20-PPO69-PEO20). The list of the herbicides and corresponding log P values (the log P values were measured according procedure described by Donovan and Pescatore, J Chromatography A 2002, 952, 47-61) are presented in Table 22. All log P values were measured at pH 7, except for clethodim, measured at pH 2. First, a stock blend of Pluronic P123 and Soprophor BSU was prepared by melting together 50 g of Pluronic P123 with 50 g of Soprophor BSU at 70° C. to form a clear, homogeneous melt. Composition of the […]

[6] = pH = 2, based on logP assigned to toluene 2.605 and triphenylene 6.266
[7] = pH = 7, based on logP assigned to toluene 2.605 and triphenylene 6.266
[8] = pH 2, pH = 2, based on logP assigned to toluene 2.605 and triphenylene 6.266, read-out: logP, Average
[9] = pH 7, pH = 7, based on logP assigned to toluene 2.605 and triphenylene 6.266, read-out: logP, Average
[10] = pH 7, measured at pH 7 (Table 22), read-out: Log P

In the case of `Cc1c(COC(=O)[C@@H]2[C@H](/C=C(\Cl)C(F)(F)F)C2(C)C)cccc1-c1ccccc1` (racemic) [Bifenthrin], the “Particle size (nm)” value [1] was 14 nm, the “Dispersion appearance in 24 hours” value [2] was “clear” and the Rf [3] was 0.00. The “n-octanol partition coefficient, logP” value ([4]; crude Bifenthrin) was > 6.
For `CO/C=C(/C(=O)OC)c1ccccc1Oc1cc(Oc2ccccc2C#N)ncn1` [Azoxystrobin], the “logP, Average” value [5, 6] was 3.074 and the “logP, Average” value [5, 7] was 3.050.
`CCCCOCN(C(=O)CCl)c1c(CC)cccc1CC` [Butachlor] gave a chromatographic logP ([5]; pH 2, logP, Average) of 4.12, a chromatographic logP ([5]; pH 7, Log P) of 4.15 and a chromatographic logP ([5]; pH 7, logP, Average) of 4.15.
In the case of `CCOC(=O)C(Cl)Cc1cc(-n2nc(C)n(C(F)F)c2=O)c(F)cc1Cl` (centres unmarked) [Carfentrazone-ethyl], the chromatographic logP [5, 8] is given as 3.99, the chromatographic logP [5, 9] is given as 4.02 and the “Log P” value [4] is given as 3.36.
In the case of `N#Cc1c(Cl)c(Cl)c(Cl)c(C#N)c1Cl` [Chlorthalonil], the “logP, Average” value [5, 6] was 4.357 and the “logP, Average” value [5, 7] was 4.234.
Compound `CCSC(C)CC1CC(=O)C(/C(CC)=N/OC/C=C/Cl)=C(O)C1` (centres unmarked) [Clethodim] has a chromatographic logP ([5]; pH 2, measured at pH 2 (Table 22), read-out: Log P) of 4.24, a chromatographic logP [5, 8] of 4.25 and a chromatographic logP [5, 9] of 0.813.
For `C#CCOC(=O)[C@@H](C)Oc1ccc(Oc2ncc(Cl)cc2F)cc1` [Clodinofop-Propargyl], the “logP, Average” value [5, 6] was 4.519 and the “logP, Average” value [5, 7] was 4.522.
In the case of `CC1(C)CON(Cc2ccccc2Cl)C1=O` [Clomazone], the “Log P” value [4] is listed as 2.5.
In the case of `CC1(C)C(C=C(Cl)Cl)C1C(=O)OC(C#N)c1cccc(Oc2ccccc2)c1` (centres unmarked) [Cypermethrin], the “Particle size (nm)” value [1] was 14 nm and the “Dispersion appearance in 24 hours” value [2] was “clear”.
With `O=C(Nc1ccc(F)cc1F)c1cccnc1Oc1cccc(C(F)(F)F)c1` [Diflufenican] the chromatographic logP [5, 8] was 4.81, the chromatographic logP [5, 10] was 4.76 and the chromatographic logP [5, 9] was 4.76.
In the case of `COC[C@H](C)N(C(=O)CCl)c1c(C)csc1C` [Dimethenamid-P], the “Log P” value [4] is listed as 2.05.
`CSC(=O)c1c(C(F)F)nc(C(F)(F)F)c(C(=O)SC)c1CC(C)C` [Dithiopyr] showed a chromatographic logP [5, 8] of 4.32, a chromatographic logP [5, 10] of 4.28 and a chromatographic logP [5, 9] of 4.28.
In the case of `N#CC(CCc1ccc(Cl)cc1)(Cn1cncn1)c1ccccc1` (centres unmarked) [Febenuconazole], the “logP, Average” value [5, 6] was 3.716 and the “logP, Average” value [5, 7] was 3.730.
With `N#Cc1nn(-c2c(Cl)cc(C(F)(F)F)cc2Cl)c(N)c1[S+]([O-])C(F)(F)F` (centres unmarked) [Fipronil] the “Particle size (nm)” value [1] was 13 nm and the “Dispersion appearance in 24 hours” value [2] was “clear”.
With `CCCCOC(=O)C(C)Oc1ccc(Oc2ccc(C(F)(F)F)cn2)cc1` (centres unmarked) [Fluazifop-butyl] the chromatographic logP ([5]; pH 2, logP, Average) was 4.44, the chromatographic logP ([5]; pH 7, Log P) was 4.42 and the chromatographic logP ([5]; pH 7, logP, Average) was 4.42.
Compound `O=[N+]([O-])c1cc(C(F)(F)F)c(Cl)c([N+](=O)[O-])c1Nc1ncc(C(F)(F)F)cc1Cl` [Fluazinam] has a chromatographic logP [5, 8] of 5.03 and a chromatographic logP [5, 9] of 4.72.
In the case of `OC(Cn1cncn1)(c1ccc(F)cc1)c1ccccc1F` (centres unmarked) [Flutriafol], the chromatographic logP ([5]; pH 2, logP, Average) was 2.12 and the chromatographic logP ([5]; pH 7, logP, Average) was 2.04.
`CCCCC(O)(Cn1cncn1)c1ccc(Cl)cc1Cl` (centres unmarked) [Hexaconazole] gave a chromatographic logP ([5]; pH 2, logP, Average) of 3.35 and a chromatographic logP ([5]; pH 7, logP, Average) of 3.31.
Work on `CCCCCCCC(=O)Oc1c(I)cc(C#N)cc1I` [Ioxynil Octanoate] yielded a chromatographic logP [5, 8] of 5.67, a chromatographic logP [5, 10] of 5.6 and a chromatographic logP [5, 9] of 5.6.
For `CON(C)C(=O)Nc1ccc(Cl)c(Cl)c1` [Linuron], the “Log P” value [4] is listed as 3.00.
With `CCCCC(C#N)(Cn1cncn1)c1ccc(Cl)cc1` (centres unmarked) [Myclobutanil] the chromatographic logP [5, 8] was 2.44 and the chromatographic logP [5, 9] was 2.8.
For `CCC(CC)Nc1c([N+](=O)[O-])cc(C)c(C)c1[N+](=O)[O-]` [Pendimethalin], the “Log P” value [4] is listed as 5.18.
`O=[N+]([O-])c1c(Cl)c(Cl)c(Cl)c(Cl)c1Cl` [Pentachloronitrobenzene] gave a chromatographic logP [5, 8] of 5.39 and a chromatographic logP [5, 9] of 5.34.
In the case of `CCCN(CCC)c1c([N+](=O)[O-])cc(C(F)(F)F)c(N)c1[N+](=O)[O-]` [Prodiamine], the “Log P” value [4] is listed as 4.10.
For `CCCSP(=O)(OCC)Oc1ccc(Br)cc1Cl` (centres unmarked) [Profenofos], the “Particle size (nm)” value [1] was 13 nm and the “Dispersion appearance in 24 hours” value [2] was “clear”.
Compound `CCCC1COC(Cn2cncn2)(c2ccc(Cl)cc2Cl)O1` (centres unmarked) [Propiconazole] has a chromatographic logP [5, 8] of 3.3 and a chromatographic logP [5, 9] of 3.29.
For `CCC(CC)Nc1c([N+](=O)[O-])cc(C)c(C)c1[N+](=O)[O-]` [Prowl], the “logP, Average” value [5, 6] was 5.108 and the “logP, Average” value [5, 7] was 5.101.
Work on `COC(=O)N(OC)c1ccccc1COc1ccn(-c2ccc(Cl)cc2)n1` [Pyraclostrobin] yielded a chromatographic logP [5, 8] of 4.53 and a chromatographic logP [5, 9] of 4.49.
In the case of `FC(F)(F)c1ccc(OCCCOc2c(Cl)cc(OCC=C(Cl)Cl)cc2Cl)nc1` [Pyridalyl], the “Particle size (nm)” value [1] was 14 nm and the “Dispersion appearance in 24 hours” value [2] was “clear”.
For `Cc1nn(-c2cc(NS(C)(=O)=O)c(Cl)cc2Cl)c(=O)n1C(F)F` [Sulfentrazone], the Rf [3] was 1.0.
In the case of `CC(C)(C)C(O)(CCc1ccc(Cl)cc1)Cn1cncn1` (centres unmarked) [Tebuconazole], the chromatographic logP [5, 8] was 3.44 and the chromatographic logP [5, 9] was 3.49.
In the case of `COP(=S)(OC)Oc1c(Cl)cc(C)cc1Cl` [Tolclofos-methyl], the chromatographic logP ([5]; pH 2, read-out: logP, Average) was 4.42 and the chromatographic logP ([5]; pH = 7, based on logP assigned to toluene 2.605 and triphenylene 6.266, read-out: logP, Average) was 4.42.
For `Cc1ccc(N(SC(F)(Cl)Cl)S(=O)(=O)N(C)C)cc1` [Tolyfluanid], the “logP, Average” value [5, 6] was 3.934 and the “logP, Average” value [5, 7] was 3.930.
`CCCOC/C(=N\c1ccc(Cl)cc1C(F)(F)F)n1ccnc1` [Triflumizole] showed a chromatographic logP ([5]; pH 2, logP, Average) of 2.6 and a chromatographic logP [5, 9] of 3.89.
For `CCCN(CCC)c1c([N+](=O)[O-])cc(C(F)(F)F)cc1[N+](=O)[O-]` [Trifluran], the chromatographic logP [5, 10] was 5.08, the “logP, Average” value [5, 6] was 5.108 and the “logP, Average” value [5, 7] was 5.084.
With Abamectin the “Particle size (nm)” value [1] was 13 nm and the “Dispersion appearance in 24 hours” value [2] was “clear”.
For Dinocap, the “Log P” value ([5]; measured at pH 7 (Table 22)) was 5.43, the “logP, Average” value [5, 6] was 5.457 and the “logP, Average” value [5, 7] was 5.428.
In the case of Spinosad, the “Particle size (nm)” value [1] was 13 nm and the “Dispersion appearance in 24 hours” value [2] was “clear”.
With Trisulfuron-methyl the “logP, Average” value [5, 6] was 3.542 and the “logP, Average” value [5, 7] was 0.510.
